Measurements reported in patent US11234437B2 (priority 2017, dated 2022).

Experiments:
[1] = tested on: Botryotinia fuckeliana (Botrytis cinerea); test: Botryotinia fuckeliana (Botrytis cinerea) / liquid culture (gray mould); format: cell-based; conditions: compared to untreated control
Description: Botryotinia fuckeliana (Botrytis cinerea)/Liquid Culture (Gray Mould)
(§1) Conidia of the fungus from cryogenic storage are directly mixed into nutrient broth (Vogels broth). After placing a (DMSO) solution of test compound into a microtiter plate (96-well format), the nutrient broth containing the fungal spores is added. The test plates are incubated at 24° C. and the inhibition of growth is determined photometrically 3-4 days after application.

[2] = tested on: Glomerella lagenarium (Colletotrichum lagenarium); test: Glomerella lagenarium (Colletotrichum lagenarium) / liquid culture (anthracnose); format: cell-based; conditions: Colletotrichum orbiculare, compared to untreated control
Description: as §1, with “(PDB potato dextrose” for “(Vogels”, “measured” for “determined”

Fusarium culmorum [3] = test: microbe, parasite or virus in culture; format: cell-based; conditions: read-out: control of Fusarium culmorum
Fusarium culmorum [4] = test: whole plant or invertebrate; format: in vivo; conditions: in Triticum aestivum, read-out: control of Fusarium culmorum
[5] = tested on: Gibberella zeae (Fusarium graminearum); test: whole plant or invertebrate; format: in vivo; conditions: in Triticum aestivum, read-out: control of Gibberella zeae
[6] = tested on: Monographella nivalis (Microdochium nivale); test: Monographella nivalis (Microdochium nivale) / liquid culture (foot rot cereals); format: cell-based; conditions: compared to untreated control
Description: Monographella nivalis (Microdochium nivale)/Liquid Culture (Foot Rot Cereals)
as §1, with “(PDB potato dextrose” for “(Vogels”, “4-5” for “3-4”

[7] = tested on: Magnaporthe grisea (Pyricularia oryzae); test: microbe, parasite or virus in culture; format: cell-based; conditions: read-out: control of Magnaporthe grisea
Sclerotinia sclerotiorum = Sclerotinia sclerotiorum / liquid culture (cottony rot); format: cell-based; conditions: compared to untreated control
Description: Sclerotinia sclerotiorum/Liquid Culture (Cottony Rot)
as §1, with “Mycelia fragments of a newly grown liquid culture” for “Conidia”, “fungus” for “fungus from cryogenic storage”, “format)” for “format),”, “material” for “spores”

Gaeumannomyces graminis = Gaeumannomyces graminis / liquid culture (take-all of cereals); format: cell-based; conditions: compared to untreated control
Description: as §1, with “Mycelial fragments of” for “Conidia of”, “storage were” for “storage are”, “broth (PDB potato dextrose” for “broth (Vogels”, “photometrically 4-5” for “photometrically 3-4”

C[C@@](Cc1cccc(F)c1)(CC(F)(F)F)NC(=O)c1cnc2c(F)cccc2c1 [Compound F-27, 8-fluoro-N-[(1R)-3,3,3-trifluoro-1-[(3-fluorophenyl)methyl]-1-methyl-propyl]quinoline-3-carboxamide]
inhibition of growth at 200 ppm [1]: ≥ 80%
inhibition of growth at 200 ppm [2]: ≥ 80%
inhibition of growth at 200 ppm (Fusarium culmorum [3]): ≥ 80%
pest or weed control at 200 ppm (Fusarium culmorum [4]): ≥ 80%
pest or weed control at 200 ppm [5]: ≥ 80%
inhibition of growth at 20 ppm [6]: ≥ 80%
inhibition of growth at 20 ppm [7]: ≥ 80%

C[C@@](Cc1ccccc1)(CC(F)(F)F)NC(=O)c1cnc2ccccc2c1 [Compound F-33, N-[(1R)-1-benzyl-3,3,3-trifluoro-1-methyl-propyl]quinoline-3-carboxamide]
inhibition of growth at 200 ppm [1]: ≥ 80%
inhibition of growth at 200 ppm [2]: ≥ 80%
inhibition of growth at 200 ppm (Fusarium culmorum [3]): ≥ 80%
pest or weed control at 200 ppm (Fusarium culmorum [4]): ≥ 80%

CC(Cc1ccccc1)(CC1(F)CC1)NC(=O)c1cnc2c(F)cccc2c1 (stereo not shown) [X.013, N-[1-benzyl-2-(1-fluorocyclopropyl)-1-methyl-ethyl]-8-fluoro-quinoline-3-carboxamide]
inhibition of growth at 200 ppm [1]: ≥ 80%
inhibition of growth at 200 ppm [2]: ≥ 80%
inhibition of growth at 200 ppm (Fusarium culmorum [3]): ≥ 80%
inhibition of growth at 20 ppm [6]: ≥ 80%
inhibition of growth at 20 ppm [7]: ≥ 80%
inhibition of growth at 20 ppm (Sclerotinia sclerotiorum): ≥ 80%
melting point: 119 to 121 °C

CC(C)C[C@@](C)(Cc1ccccc1)NC(=O)c1cnc2c(F)c(F)ccc2c1 [Compound F-13, N-[(1S)-1-benzyl-1,3-dimethyl-butyl]-7,8-difluoro-quinoline-3-carboxamide]
pest or weed control at 200 ppm (Fusarium culmorum [4]): ≥ 80%
pest or weed control at 200 ppm [5]: ≥ 80%
inhibition of growth at 20 ppm [7]: ≥ 80%

CC(C)CC(C)(Cc1ccccc1)NC(=O)c1cnc2ccccc2c1 (stereo not shown) [X.019, N-(1-benzyl-1,3-dimethyl-butyl)quinoline-3-carboxamide]
inhibition of growth at 20 ppm (Gaeumannomyces graminis): ≥ 80%
pest or weed control at 200 ppm [5]: ≥ 80%
inhibition of growth at 20 ppm [6]: ≥ 80%
melting point: 121 to 123 °C

C[C@](Cc1ccccc1)(CC(F)(F)F)NC(=O)c1cnc2c(Cl)cccc2c1 [Compound F-19, N-[(1S)-1-benzyl-3,3,3-trifluoro-1-methyl-propyl]-8-chloro-quinoline-3-carboxamide]
pest or weed control at 200 ppm [5]: ≥ 80%
inhibition of growth at 20 ppm [7]: ≥ 80%
inhibition of growth at 20 ppm (Sclerotinia sclerotiorum): ≥ 80%

C[C@@](Cc1ccccc1)(CC1(F)CC1)NC(=O)c1cnc2c(F)cccc2c1 [Compound F-23, N-[(1R)-1-benzyl-2-(1-fluorocyclopropyl)-1-methyl-ethyl]-8-fluoro-quinoline-3-carboxamide]
inhibition of growth at 200 ppm [1]: ≥ 80%
inhibition of growth at 200 ppm [2]: ≥ 80%
inhibition of growth at 200 ppm (Fusarium culmorum [3]): ≥ 80%
pest or weed control at 200 ppm (Fusarium culmorum [4]): ≥ 80%
inhibition of growth at 20 ppm [6]: ≥ 80%
inhibition of growth at 20 ppm [7]: ≥ 80%

CC(C)CC(C)(Cc1ccccc1)NC(=O)c1cnc2c(F)c(F)ccc2c1 (stereo not shown) [X.008, N-(1-benzyl-1,3-dimethyl-butyl)-7,8-difluoro-quinoline-3-carboxamide]
inhibition of growth at 20 ppm (Gaeumannomyces graminis): ≥ 80%
pest or weed control at 200 ppm [5]: ≥ 80%
inhibition of growth at 20 ppm [6]: ≥ 80%
inhibition of growth at 20 ppm [7]: ≥ 80%
melting point: 114 to 116 °C

C=C(Cl)C[C@@](C)(Cc1ccccc1)NC(=O)c1cnc2c(F)cccc2c1 [Compound F-36]
inhibition of growth at 200 ppm [1]: ≥ 80%
inhibition of growth at 200 ppm [2]: ≥ 80%
inhibition of growth at 200 ppm (Fusarium culmorum [3]): ≥ 80%

CC1(C[C@](C)(Cc2ccccc2)NC(=O)c2cnc3c(F)cccc3c2)CC1 [Compound F-25, N-[(1R)-1-benzyl-1-methyl-2-(1-methylcyclopropyl)ethyl]-8-fluoro-quinoline-3-carboxamide]
inhibition of growth at 200 ppm [1]: ≥ 80%
inhibition of growth at 200 ppm [2]: ≥ 80%
inhibition of growth at 200 ppm (Fusarium culmorum [3]): ≥ 80%
pest or weed control at 200 ppm (Fusarium culmorum [4]): ≥ 80%
pest or weed control at 200 ppm [5]: ≥ 80%
inhibition of growth at 20 ppm [7]: ≥ 80%
inhibition of growth at 20 ppm (Sclerotinia sclerotiorum): ≥ 80%

CC(F)(F)C[C@](C)(Cc1ccccc1)NC(=O)c1cnc2c(F)cccc2c1 [Compound F-32, N-[(1S)-1-benzyl-3,3-difluoro-1-methyl-butyl]-8-fluoro-quinoline-3-carboxamide]
pest or weed control at 200 ppm [5]: ≥ 80%
inhibition of growth at 20 ppm [7]: ≥ 80%
inhibition of growth at 20 ppm (Sclerotinia sclerotiorum): ≥ 80%

CC(C)CC(C)(Cc1cccc(F)c1)NC(=O)c1cnc2c(F)cccc2c1 (stereo not shown) [X.011, 8-fluoro-N-[1-[(3-fluorophenyl)methyl]-1,3-dimethyl-butyl]quinoline-3-carboxamide]
inhibition of growth at 20 ppm (Gaeumannomyces graminis): ≥ 80%
inhibition of growth at 20 ppm [6]: ≥ 80%
inhibition of growth at 20 ppm [7]: ≥ 80%
melting point: 45 to 47 °C

CC(Cc1cccc(F)c1)(CC(F)(F)F)NC(=O)c1cnc2c(F)cccc2c1 (stereo not shown) [X.012, 8-fluoro-N-[3,3,3-trifluoro-1-[(3-fluorophenyl)methyl]-1-methyl-propyl]quinoline-3-carboxamide]
pest or weed control at 200 ppm [5]: ≥ 80%
inhibition of growth at 20 ppm [6]: ≥ 80%
inhibition of growth at 20 ppm [7]: ≥ 80%
inhibition of growth at 20 ppm (Sclerotinia sclerotiorum): ≥ 80%
melting point: 149 to 151 °C

C[C@](Cc1ccccc1)(CC(F)(F)F)NC(=O)c1cnc2c(F)c(F)ccc2c1 [Compound F-21, N-[(1S)-1-benzyl-3,3,3-trifluoro-1-methyl-propyl]-7,8-difluoro-quinoline-3-carboxamide]
inhibition of growth at 20 ppm [7]: ≥ 80%
inhibition of growth at 20 ppm (Sclerotinia sclerotiorum): ≥ 80%

CC(C)C[C@@](C)(Cc1cccc(F)c1)NC(=O)c1cnc2c(F)cccc2c1 [Compound F-30, 8-fluoro-N-[(1S)-1-[(3-fluorophenyl)methyl]-1,3-dimethyl-butyl]quinoline-3-carboxamide]
inhibition of growth at 200 ppm [1]: ≥ 80%
inhibition of growth at 200 ppm [2]: ≥ 80%
inhibition of growth at 200 ppm (Fusarium culmorum [3]): ≥ 80%
pest or weed control at 200 ppm (Fusarium culmorum [4]): ≥ 80%
inhibition of growth at 20 ppm [6]: ≥ 80%
inhibition of growth at 20 ppm [7]: ≥ 80%

CC(Cc1ccccc1)(CC(F)(F)F)NC(=O)c1cnc2c(F)c(F)ccc2c1 (stereo not shown) [X.007, N-(1-benzyl-3,3,3-trifluoro-1-methyl-propyl)-7,8-difluoro-quinoline-3-carboxamide]
pest or weed control at 200 ppm [5]: ≥ 80%
inhibition of growth at 20 ppm [7]: ≥ 80%
inhibition of growth at 20 ppm (Sclerotinia sclerotiorum): ≥ 80%

Cc1cccc2cc(C(=O)N[C@@](C)(Cc3ccccc3)CC(F)(F)F)cnc12 [Compound F-17, N-[(1S)-1-benzyl-3,3,3-trifluoro-1-methyl-propyl]-8-methyl-quinoline-3-carboxamide]
inhibition of growth at 20 ppm [6]: ≥ 80%
inhibition of growth at 20 ppm [7]: ≥ 80%
inhibition of growth at 20 ppm (Sclerotinia sclerotiorum): ≥ 80%

CC1(C[C@@](C)(Cc2ccccc2)NC(=O)c2cnc3c(F)cccc3c2)CC1 [Compound F-26, N-[(1S)-1-benzyl-1-methyl-2-(1-methylcyclopropyl)ethyl]-8-fluoro-quinoline-3-carboxamide]
inhibition of growth at 200 ppm [1]: ≥ 80%
inhibition of growth at 200 ppm [2]: ≥ 80%
inhibition of growth at 200 ppm (Fusarium culmorum [3]): ≥ 80%
inhibition of growth at 20 ppm [6]: ≥ 80%
inhibition of growth at 20 ppm [7]: ≥ 80%

Cc1cccc2cc(C(=O)NC(C)(Cc3ccccc3)CC(C)C)cnc12 (stereo not shown) [X.017, N-(1-benzyl-1,3-dimethyl-butyl)-8-methyl-quinoline-3-carboxamide]
inhibition of growth at 20 ppm (Gaeumannomyces graminis): ≥ 80%
pest or weed control at 200 ppm [5]: ≥ 80%
inhibition of growth at 20 ppm [6]: ≥ 80%
inhibition of growth at 20 ppm [7]: ≥ 80%
melting point: 132 to 133 °C
